Data from patent US8912186B2, “Allosteric protein kinase modulators” (Universitaet des Saarlandes, priority 2008, dated 2014).

Tests used:
Assay type in all cases: biochemical
[1] = target: PKA (Homo sapiens, UniProt P17612); assay: cell-free kinase activity assay; conditions: DMSO control set 100%
[2] = target: T1, PKCζ (Homo sapiens, UniProt Q05513); assay: cell-free kinase activity assay; conditions: DMSO control set 100%; for remaining activity at 50 µM / remaining activity at 200 µM: read-out: percent of catalytic activity of the Kinase in the presence of compound as compared to the solvent control (DMSO): PKCζ
T1 sequence (Q05513 1-592): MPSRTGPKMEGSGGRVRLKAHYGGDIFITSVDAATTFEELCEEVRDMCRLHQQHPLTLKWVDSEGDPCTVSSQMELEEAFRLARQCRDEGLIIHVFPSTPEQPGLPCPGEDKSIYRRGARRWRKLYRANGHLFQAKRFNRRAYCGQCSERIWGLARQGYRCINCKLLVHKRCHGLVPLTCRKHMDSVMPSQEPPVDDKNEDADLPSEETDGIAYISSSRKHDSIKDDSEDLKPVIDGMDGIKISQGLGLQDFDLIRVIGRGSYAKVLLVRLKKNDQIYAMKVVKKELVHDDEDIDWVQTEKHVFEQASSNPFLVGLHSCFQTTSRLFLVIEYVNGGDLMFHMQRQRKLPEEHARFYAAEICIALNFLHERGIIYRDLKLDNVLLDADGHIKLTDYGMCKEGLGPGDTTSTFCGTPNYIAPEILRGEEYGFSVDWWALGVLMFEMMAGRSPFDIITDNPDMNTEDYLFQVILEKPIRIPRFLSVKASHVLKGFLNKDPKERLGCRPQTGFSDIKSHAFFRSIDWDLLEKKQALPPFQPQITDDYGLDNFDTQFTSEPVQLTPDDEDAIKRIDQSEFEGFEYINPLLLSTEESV

[3] = target: PRK2 (Homo sapiens, UniProt Q16513); assay: cell-free kinase activity assay; conditions: DMSO control set 100%
[4] = target: PKBβ (Homo sapiens, UniProt P31751); assay: cell-free kinase activity assay; conditions: DMSO control set 100%
[5] = target: S6K (Homo sapiens, UniProt P23443); assay: cell-free kinase activity assay; conditions: DMSO control set 100%; for remaining activity at 200 µM: 200 μM compound
[6] = target: T2, SGK (Homo sapiens, UniProt O00141); assay: cell-free kinase activity assay; conditions: DMSO control set 100%; for remaining activity at 200 µM: read-out: percent of catalytic activity of the Kinase in the presence of compound as compared to the solvent control (DMSO): SGK
T2 sequence (O00141 1-431): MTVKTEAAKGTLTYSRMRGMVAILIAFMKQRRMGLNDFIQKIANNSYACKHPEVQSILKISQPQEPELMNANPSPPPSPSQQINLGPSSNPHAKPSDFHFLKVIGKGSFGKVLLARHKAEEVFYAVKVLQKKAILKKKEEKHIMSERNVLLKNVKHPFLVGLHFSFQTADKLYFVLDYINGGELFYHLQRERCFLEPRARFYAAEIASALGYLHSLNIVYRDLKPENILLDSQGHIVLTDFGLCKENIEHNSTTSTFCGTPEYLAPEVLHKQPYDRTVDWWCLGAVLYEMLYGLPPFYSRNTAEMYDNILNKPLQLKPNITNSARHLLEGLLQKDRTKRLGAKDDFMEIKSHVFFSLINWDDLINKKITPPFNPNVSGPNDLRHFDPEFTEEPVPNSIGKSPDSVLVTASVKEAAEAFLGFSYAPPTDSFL

[7] = target: T3, PDK1 (Homo sapiens, UniProt O15530); assay: cell-free kinase activity assay (ATPgamma[32P], T308tide substrate); conditions: for percent of catalytic activity of the Kinase in the presence of compound as compared to the solvent control (DMSO): PDK1 / activity at 50 µM / activity at 200 µM: DMSO control set 100%; for activity at 50 µM / activity at 200 µM: read-out: percent of catalytic activity of the Kinase in the presence of compound as compared to the solvent control (DMSO): PDK1
T3 construct: GST
T3 sequence (O15530 1-556): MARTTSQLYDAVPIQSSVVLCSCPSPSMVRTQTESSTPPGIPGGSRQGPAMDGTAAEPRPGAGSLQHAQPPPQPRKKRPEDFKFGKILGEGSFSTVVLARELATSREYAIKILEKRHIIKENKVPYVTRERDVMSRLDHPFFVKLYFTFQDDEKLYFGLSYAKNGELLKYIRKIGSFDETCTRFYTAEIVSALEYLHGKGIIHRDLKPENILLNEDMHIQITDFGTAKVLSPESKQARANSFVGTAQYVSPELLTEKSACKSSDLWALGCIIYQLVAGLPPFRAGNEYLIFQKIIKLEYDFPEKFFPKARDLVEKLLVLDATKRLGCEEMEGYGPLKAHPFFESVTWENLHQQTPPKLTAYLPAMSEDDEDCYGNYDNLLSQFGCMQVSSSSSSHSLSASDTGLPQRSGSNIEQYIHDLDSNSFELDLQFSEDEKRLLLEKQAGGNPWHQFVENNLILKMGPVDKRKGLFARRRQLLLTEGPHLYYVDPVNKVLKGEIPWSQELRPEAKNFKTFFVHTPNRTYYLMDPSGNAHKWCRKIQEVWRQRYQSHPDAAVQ
Text: Principle of the cell-free kinase activity assay: In general, the activity of the compounds as protein kinase inhibitors or activators may be assayed in vitro (cell free assay is meant here), in vivo or in a cell line. In vitro assays include assays that determine inhibition or activation of either the phosphorylation activity or ATPase activity of the activated protein kinase. Alternate in vitro assays quantitate the ability of the inhibitor to bind to the protein kinase. Compound binding may be measured by radiolabelling the compound prior to binding, isolating the inhibitor or activator/protein kinase complex and determining the amount of radiolabel bound. Alternatively, inhibitor or activator binding may be determined by running a competition experiment where new compounds are incubated with the protein kinase bound to known radioligands. Newer methods comprise fluorescence polarisation assays and surface plasmon resonance dependent techniques. […] The activity and modulation of activity is measured using a standard ATPgamma[^32P] assay as described earlier. […] The concentration of T308tide is 1 mM and the amount of PDK1 used is 200 ng. Reactions are carried out at room temperature. Reaction is started by addition of ATP-Mg mix and stopped with phosphoric acid after 30 min. Stopped reactions were spotted on to phosphocellulose paper (P81, Whatman) and washed. After drying, the radioactivity associated to the band was quantified.

[8] = read-out: percent of catalytic activity of the Kinase in the presence of compound as compared to the solvent control (DMSO): S6K

Sequence of PKBβ (P31751 whole entry, species assumed): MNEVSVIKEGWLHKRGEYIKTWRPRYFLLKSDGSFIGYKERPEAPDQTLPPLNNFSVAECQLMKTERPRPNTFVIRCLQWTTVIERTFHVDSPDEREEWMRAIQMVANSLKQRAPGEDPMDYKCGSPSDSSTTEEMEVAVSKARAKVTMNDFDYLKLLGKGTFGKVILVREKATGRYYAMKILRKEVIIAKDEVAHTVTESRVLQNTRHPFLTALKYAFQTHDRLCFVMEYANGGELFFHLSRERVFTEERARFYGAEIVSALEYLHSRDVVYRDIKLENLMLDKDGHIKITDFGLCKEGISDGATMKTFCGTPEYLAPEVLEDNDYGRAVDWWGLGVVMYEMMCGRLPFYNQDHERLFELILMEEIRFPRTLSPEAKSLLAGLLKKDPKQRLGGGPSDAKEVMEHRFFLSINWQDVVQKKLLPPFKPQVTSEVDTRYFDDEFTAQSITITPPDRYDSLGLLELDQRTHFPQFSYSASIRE
Sequence of PRK2 (Q16513 whole entry, species assumed): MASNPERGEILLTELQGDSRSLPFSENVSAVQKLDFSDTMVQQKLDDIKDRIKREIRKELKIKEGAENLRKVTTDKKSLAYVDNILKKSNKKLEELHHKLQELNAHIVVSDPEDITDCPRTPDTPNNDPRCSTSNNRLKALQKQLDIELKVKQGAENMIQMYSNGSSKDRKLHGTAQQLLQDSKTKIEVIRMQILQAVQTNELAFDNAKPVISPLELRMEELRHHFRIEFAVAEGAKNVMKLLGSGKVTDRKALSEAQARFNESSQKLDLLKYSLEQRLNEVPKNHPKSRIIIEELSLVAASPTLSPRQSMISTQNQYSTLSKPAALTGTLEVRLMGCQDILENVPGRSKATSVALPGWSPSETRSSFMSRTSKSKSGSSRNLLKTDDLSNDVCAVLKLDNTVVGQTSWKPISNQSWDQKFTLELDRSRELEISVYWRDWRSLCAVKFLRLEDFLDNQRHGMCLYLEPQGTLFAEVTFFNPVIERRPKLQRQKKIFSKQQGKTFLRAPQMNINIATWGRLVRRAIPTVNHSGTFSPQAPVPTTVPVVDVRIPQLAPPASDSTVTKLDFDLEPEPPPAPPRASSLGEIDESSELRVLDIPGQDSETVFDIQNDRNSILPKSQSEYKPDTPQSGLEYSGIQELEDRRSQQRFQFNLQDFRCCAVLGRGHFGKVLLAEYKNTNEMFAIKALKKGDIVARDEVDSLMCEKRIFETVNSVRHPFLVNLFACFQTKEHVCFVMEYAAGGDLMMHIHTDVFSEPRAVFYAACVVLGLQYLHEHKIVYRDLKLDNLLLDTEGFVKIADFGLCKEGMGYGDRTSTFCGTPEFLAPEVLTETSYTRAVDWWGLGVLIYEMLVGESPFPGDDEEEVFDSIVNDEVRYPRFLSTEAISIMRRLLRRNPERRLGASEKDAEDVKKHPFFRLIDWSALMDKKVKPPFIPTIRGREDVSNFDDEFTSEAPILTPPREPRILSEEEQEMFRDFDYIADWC
Sequence of S6K (P23443 whole entry): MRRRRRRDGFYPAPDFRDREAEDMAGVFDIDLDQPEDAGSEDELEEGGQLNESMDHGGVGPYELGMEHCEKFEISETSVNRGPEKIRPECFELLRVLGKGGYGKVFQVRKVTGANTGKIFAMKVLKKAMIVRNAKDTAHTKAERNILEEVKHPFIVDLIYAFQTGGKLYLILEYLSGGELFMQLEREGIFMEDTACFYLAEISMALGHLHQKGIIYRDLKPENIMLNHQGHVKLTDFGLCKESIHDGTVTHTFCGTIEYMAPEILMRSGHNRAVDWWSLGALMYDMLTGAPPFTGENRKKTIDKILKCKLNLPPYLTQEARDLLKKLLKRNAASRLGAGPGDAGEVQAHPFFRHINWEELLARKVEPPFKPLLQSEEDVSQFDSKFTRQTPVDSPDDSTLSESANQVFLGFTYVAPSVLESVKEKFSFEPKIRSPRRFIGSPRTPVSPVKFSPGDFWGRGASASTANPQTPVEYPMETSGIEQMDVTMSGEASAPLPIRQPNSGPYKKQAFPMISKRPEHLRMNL

percent of catalytic activity of the Kinase in the presence of compound as compared to the solvent control (DMSO): PKA ([1]; 50 μM compound) | percent of catalytic activity of the Kinase in the presence of compound as compared to the solvent control (DMSO): PKA ([1]; 200 μM compound) | remaining activity at 50 µM ([2]; 50 μM compound) [%] | remaining activity at 200 µM ([2]; 200 μM compound) [%] | percent of catalytic activity of the Kinase in the presence of compound as compared to the solvent control (DMSO): PRK2 ([3]; 50 μM compound) | percent of catalytic activity of the Kinase in the presence of compound as compared to the solvent control (DMSO): PRK2 ([3]; 200 μM compound) | remaining activity at 200 µM [5, 8] [%] | percent of catalytic activity of the Kinase in the presence of compound as compared to the solvent control (DMSO): SGK ([6]; 50 μM compound) | remaining activity at 200 µM ([6]; 200 μM compound) [%] | percent of catalytic activity of the Kinase in the presence of compound as compared to the solvent control (DMSO): PKBβ ([4]; 50 μM compound) | percent of catalytic activity of the Kinase in the presence of compound as compared to the solvent control (DMSO): PKBβ ([4]; 200 μM compound) | percent of catalytic activity of the Kinase in the presence of compound as compared to the solvent control (DMSO): S6K ([5]; 50 μM compound) | activity at 50 µM ([7]; 50 μM compound) [%] | activity at 200 µM ([7]; 200 μM compound) [%] | also measured | SMILES
no effect | no effect | 10 to 20 | 0 | no effect | no effect | 25 | no effect | ~20 | – | – | – | – | – | remaining activity at 50 µM ([4]; 50 μM compound, read-out: percent of catalytic activity of the Kinase in the presence of compound as compared to the solvent control (DMSO): PKBβ): 90%; remaining activity at 200 µM ([4]; 200 μM compound, read-out: percent of catalytic activity of the Kinase in the presence of compound as compared to the solvent control (DMSO): PKBβ): 25%; remaining activity at 50 µM ([5]; 50 μM compound, read-out: percent of catalytic activity of the Kinase in the presence of compound as compared to the solvent control (DMSO): S6K): 85%; percent of catalytic activity of the Kinase in the presence of compound as compared to the solvent control (DMSO): PDK1 ([7]; 50 μM compound): no effect; percent of catalytic activity of the Kinase in the presence of compound as compared to the solvent control (DMSO): PDK1 ([7]; 200 μM compound): no effect; AC50 PDK1 (μM) ([7]; concentration of the compound required to activate half maximally, n.e.: no effect): n.e.; max. activation of PDK1 (fold) ([7]; maximum activation achievable, compared to the basal activity of PDK1, n.e.: no effect): n.e. | O=C(O)/C=C(/c1ccccc1)c1cc2cc(Cl)ccc2s1 [PS 118, (Z)-3-(5-Chloro-2-benzothiophenyl)-3-phenylacrylic acid]
no effect | no effect | 80 | 30 to 40 | no effect | no effect | ~80 | no effect | 70 to 80 | no effect | no effect | no effect | 300 | 400 | – | O=C(O)CC(CC(=O)N1Cc2ccc(Cl)cc2C1)c1ccc(Cl)cc1 (centres unmarked) [PS 141]
no effect | no effect | – | – | no effect | no effect | ~80 | no effect | – | no effect | no effect | no effect | 240 | 310 | percent of catalytic activity of the Kinase in the presence of compound as compared to the solvent control (DMSO): PKCζ ([2]; 50 μM compound): no effect; percent of catalytic activity of the Kinase in the presence of compound as compared to the solvent control (DMSO): PKCζ ([2]; 200 μM compound): no effect; percent of catalytic activity of the Kinase in the presence of compound as compared to the solvent control (DMSO): SGK ([6]; 200 μM compound): no effect | O=C(O)CC(C(=O)N1CCc2ccccc2C1)c1ccc(Cl)cc1 (centres unmarked) [PS 152]
